These results are taken from patent publication US20190083498A1, “THERAPIES FOR HEMATOLOGIC MALIGNANCIES” (GILEAD CALISTOGA LLC, priority 2008, published 2019).

The test system of assay [1] is LB cells. Description: MM cell growth with IGF-1 or IL-6, MTT. The class given is cell-based, human. Conditions: 0.625 μM-[…], IL-6 or IGF-1, 48 h. On the procedure: LB cells (Myelomonocytic myeloma cell line) were cultured for 48 h with control media; with the compound of formula I, in the presence or absence of either IL-6 or IGF-1. […] Cells were pulsed with 10 μL of 5 mg/mL MTT to each well for the last 4 hours of 48-hour cultures, followed by 100 μL isopropanol containing 0.04 N HCl. Absorbance was measured at 570/630 nm using a spectrophotometer (Molecular Devices).

Assay [2] relates to MCL cell lines. Nature of the assay: Survival factor signaling (pAkt) in MCL cell lines. The class given is cell-based.
Assay [3] has as its system Phospho-Akt. Nature of the assay: Phospho-Akt production in patient AML cells. The settings on record: 0.1, 1.0, 10 μM. The format is cell-based, human. From the text: PI3Kδ is implicated in signaling in AML patient cells.
Assay [4] deals with INA-6 cells. Description: Cleavage of caspases and PARP, western blot. The class given is cell-based, human. The settings on record: 0-5 μM, 120 h. From the text:
(§1) Whole-cell lysates were subjected to sodium dodecyl sulfate-polyacrylamide gel electrophoresis (SDS-PAGE) separation, transferred to Pure Nitrocellulose membranes (Bio-Rad Laboratories, Hercules, Calif.), and immunoblotted with anti-AKT, phospho(p)-AKT (Ser473, Thr 308), ERK1/2 , P-ERK1/2, P-PDK1, STAT, P-STAT, P-FKRHL, P-70S6K, LC3, and PI3K/p110 α Abs (Cell Signaling Danvers, Mass.); anti-p110β, PI3K/p110δ, Glyceraldehyde 3-phosphate dehydrogenase (GAPDH), α-tubulin, and actin Abs (Santa Cruz Biotechnology, Calif.); and anti-p110 γ Ab (Alexis, San Diego, Calif.): and anti-LC3 Ab (Abgent, San Diego, Calif.).
Total cell lysates were subjected to immunoblotting using anti-caspase-3, -8, -9, PARP, and α-tubulin Abs. FL indicates full-length protein, and CL indicates cleaved protein.

The test system of assay [5] is T-ALL and B-ALL leukemic cell lines. Nature of the assay: Viability of ALL cell lines, AlamarBlue. The format is cell-based. Conditions: 48 hours. The method, then: Viability assays of cell lines were performed using the AlamarBlue assay (Invitrogen). Cells (1×10^6 per well) in a volume of 100 μL were placed in a 96-well flat-bottom plate and the compound of formula I (100 μL per well at 2× final concentration) or medium alone was added to the plates. All were performed in quadruplicate. Cells were incubated for fixed times (48 hours). After the incubation, 10 μL AlamarBlue® was added to each well. Cells were incubated for 4 hours and the optical density at 530-560 nm was obtained using a SpectraMax® M5 plate reader 2001. Cell viability was expressed as a percentage of absorption between treated cells/control sample.
(In general: Alamar Blue is a resazurin reagent that responds to reducing activity.)

Assay [6] relates to cleavage of caspase 3 and PARP. Nature of the assay: Caspase 3 and PARP cleavage, MSD multi-spot plates. Conditions: 5 or 10 μM; 24 hrs. The format is cell-based. The method, then: Thereafter, cells were lysed and sized-fractionated and immunoblotted with antibody directed against FLIP, FIG. 29. Additionally, whole cell lysates were added to MDS (Meso Scale Diagnostics) multi-spot 96-well 4 spot plates coated with Total caspase-3, cleaved caspase-3, cleaved PARP, and BSA. Proteins were detected with antibodies labeled with SULFO-TAG reagent and quantified.

For assay [7], the system named is CLL cells with or without StromaNKTert. Description: CLL cell viability/apoptosis in stromal co-culture, Annexin V/PI FACS. Conditions: 24 hours. The class given is cell-based, human. The method, then:
CLL cell and stromal cell co-cultures: CLL cells were cultured under standardized conditions on stromal cell lines or primary NLC. Briefly, stromal cells were seeded one day prior to each experiment onto 24-well plates (Corning Life Sciences) at a concentration of 3×10^5 cells/mL/well and incubated at 37° C. in 5% CO2. Stromal cell confluence was confirmed by phase contrast microscopy, and CLL cells were then added onto the stromal cell layer at a concentration of 3×10^6 cells/mL. Cultures were then treated with compounds for the specified time periods. CLL cells were removed for analysis by gentle pipetting with media, and were then washed in PBS prior to analysis. A 24-hour co-culture time point was used unless otherwise indicated.
Cell viability testing and reagents: CLL cell viability was determined by analysis of Annexin V-FITC (BD Biosciences, San Diego, Calif.) and Propidium Iodine (PI) (Sigma) by FACS.
To determine whether PI3K inhibition increased the sensitivity of stroma-exposed CLL cells by increasing priming, PB-derived CLL cells cultured with or without StromaNKTert cells for 24 hours and were examined using Annexin-PI and BH3 profiling. […] Stromal co-culture of four CLL patient samples led to protection from apoptosis in untreated cells.

The test system of assay [8] is IGROV-1 and OVCAR-3 cell lines. Description: Proliferation of ovarian cancer cell lines, AlamarBlue. The class given is cell-based. The settings on record: IGROV-1 and OVCAR-3, with serum. The method, then:
IGROV-1 and OVCAR-3 cell lines were grown in the presence of serum plus the indicated concentrations of the compound of formula I. Proliferation was measured in triplicate wells by AlamarBlue assay (Invitrogen) 96-well plates.

Assay [9] concerns LB and INA-6 cells. Description: MM cell DNA synthesis with IL-6 or IGF-1, [3H]-thymidine incorporation. The class given is cell-based, human. Conditions: 5.0 or 10 μM; IL-6 1 and 10 ng/ml, IGF-1 10 and 100 ng/mL. The method, then:
DNA synthesis was determined by measuring [3H]-thymidine incorporation during the last 8 h of 72 h cultures. Data represent means (±SD) of triplicate cultures.
A general note: Incorporation of labelled thymidine or its analogues reports DNA synthesis.

Assay [10] concerns FL cell lines. Description: PI3K signaling and apoptosis in follicular lymphoma cell lines. The class given is cell-based.
In assay [11] the test system is phospho-AKT (ser473) in INA-6 cells. Description: Bortezomib-induced AKT phosphorylation, western blotting. The class given is cell-based, human. Conditions: compound I 5 μM, bortezomib 5 nM; 6 h. The method, then:
Phosphorylation of AKT was determined by western blotting of cell lysates using phospho-AKT (ser473) antibody, FIG. 37B. Actin served as a loading control.
In general terms: A western blot detects proteins with antibodies after separation by electrophoresis.

Assay [12] deals with CLL cells on StromaNKTert. Description: Calcein-based adhesion assay of CLL cells on stroma. The class given is cell-based, human. On the procedure:
Calcein-based adhesion assay: a confluent monolayer of CD154+ L or StromaNKTert cells was generated by plating 1×10^4 cells/well in 96-well plates for 24 hours. Single cell suspensions of CLL cells at 0.5×10^6 cells/ml were then labeled with 1 μg/mL Calcein-AM (Invitrogen) for 1 hour. Cells were then spun down and treated with compound or vehicle for 1 to 24 hours. Non-adherent cells were washed off by aspiration. CLL cell adhesion was quantified by fluorimetry (Ex/Em=485/520 nm), and visualized directly using the Nikon TE2000 inverted live-cell imaging system.

For assay [13], the system named is MM.1S cells. Description: AKT and ERK phosphorylation, immunoblotting. The class given is cell-based, human. The settings on record: MM.1S cells with low expression of P110δ; 6 hours.
Source text: as §1
Actin Ab was used as a loading control. […] Whole cell lysates were subjected to immunoblotting using AKT, P-AKT (Ser473 and Thr308), ERK1/2, P-ERK1/2, P-PDK1, and P-FKRHL antibodies. α-tubulin is used as a loading control.

SMILES strings stand for the structures.

Regarding `CC[C@H](Nc1ncnc2[nH]cnc12)c1nc2cccc(F)c2c(=O)n1-c1ccccc1` [Compound I, 5-fluoro-3-phenyl-2-[1-(9H-purin-6-ylamino)-propyl]-3H-quinazolin-4-one], the “MM cell growth in the presence of cell growth stimulatory cytokines” value in assay [1] was “inhibits MM cell growth”. The “pAkt in MCL lines exposed to survival factors” value in [2] is on record as “significant reduction of pAkt”. Also, in assay [3], the “phospho-Akt production in patient AML cells” value is “reduces phopsho-Akt production”. For the same compound, the “cleavage of caspase-8, caspase-9, caspase-3, and PARP” value in [4] is listed as “Significantly increased cleavage”. Besides, the “cellular viability of ALL cell lines” value in [5] is recorded as “significant reduction in cell viability”; in [5] (listed as compound I), “substantial reduction in cellular viability”. Moreover, the “cleavage of caspase 3 and PARP” value in [6] is recorded as “dose dependent response”. In addition, in assay [7] (10 μM alone, two patients), the “CLL cell viability in stromal co-culture, single agent” value is listed as “profound stroma-mediated resistance”. In addition, in assay [7] (four CLL patient samples), the “apoptosis versus control in the absence of stroma” value is reported as “induce more apoptosis than the control”. Also, the “apoptosis versus control in the presence of stroma” value in assay [7] (four CLL patient samples) was “induce significantly more apoptosis than the control”. The “proliferation of ovarian cancer cell lines” value in [8] is “inhibits proliferation”. For the same compound, in [9], the “growth inhibition in the presence of IL-6 or IGF-1” value was “Neither IL-6 nor IGF-1 protected”. The “pAkt, Akt, pS6 and S6 in FL cell lines” value in assay [10] (certain cell lines) is “reduction in the production of pAkt, Akt, pS6 and S6”. In addition, the “cleavage of PARP and Caspase-3 in FL cell lines” value in [10] (dose dependent, 24 hours, 0.1 μM and 0.5 μM) is “Cleavage of PARP and Caspase-3 is observed”. In addition, the “induction of phospho-Akt by bortezomib treatment” value in [11] is given as “inhibited”. The “CLL cell adherence to stroma after one hour” value in assay [12] is “reduced adherence”. In assay [12] (10 μM), the “CLL cell adherence to stroma at 24 hours” value is “less adherent”. Also, in assay [13], the “phosphorylation of AKT or ERK” value is “did not affect”.
